US20020137209A1, “Methods of dissociating nongenotropic from genotropic activity of steroid receptors” (priority 2000, published 2002)

Legend:
[1] = system: calvaria-derived murine osteoblastic cells; experiment: Apoptosis of calvaria-derived osteoblastic cells (trypan blue); conditions: 10^−8 M steroid
[2] = system: vertebral osteoblast and osteocyte apoptosis; experiment: Osteoblast and osteocyte apoptosis in vertebrae of ovariectomized mice (TUNEL); assay type: in vivo; conditions: data not shown
[3] = system: lactoferrin mRNA in the uterus; conditions: WT mice, E2 20 ng/g body weight for 28 days; stated as known; cited from earlier work
[4] = system: HeLa cells transfected with the vector without receptor (empty vector, ev); experiment: Etoposide-induced apoptosis in HeLa cells transfected with empty vector; conditions: 10^−12M to 10^−8 M
[5] = system: osteocytic cell line MLO-Y4; experiment: Apoptosis of MLO-Y4 osteocytic cells (trypan blue); assay type: cell-based
[6] = system: ERK1/2; experiment: ERK phosphorylation in MLO-Y4 cells (Western blot); assay type: cell-based; conditions: MLO-Y4 cells
Method: Western blot analysis. The phosphorylation status of ERK1/2 was analyzed by immunoblotting using a mouse monoclonal antibody recognizing tyrosine phosphorylated ERK1/2, or a rabbit polyclonal antibody recognizing total ERK1/2, followed by incubation with either an anti-mouse or an anti-rabbit antibody conjugated with horseradish peroxidase (Santa Cruz Biotechnology).

[7] = system: embryonic fibroblasts derived from Src−/− mice; experiment: Apoptosis in embryonic fibroblasts from Src−/− mice; assay type: cell-based; conditions: ER- and AR-expressing, also lack yes and Fyn
Method: Cell lysates were obtained and proteins were analyzed by Western blot analysis using anti-ERK1/2 or anti-phospho-ERK1/2 (p-ERK1/2) antibodies. […] After 30 min, etoposide was added and apoptosis was assayed 6 hours later as in FIG. 1B. […] RT-PCR was performed as described in the experimental procedures. C-E. HeLa cells were transfected with Nuc-EGFP and with expression vectors encoding the full length ERα or its E domain, or the AR alone (C, left panel) or together with a dn MEK (C, right panel); a Src mutant lacking the kinase activity (Src K^−), a Src mutant lacking the SH2 domain (Src ΔSH2), or a Src mutant lacking the SH3 domain (Src ΔSH3) (D); or with ERα together with wt Shc, or the dn Shc mutants Y239F/Y240F/Y317F (Shc FFF), Y317F (Shc YYF) or Y239F/Y240F (Shc FFY) (E). Bars represent means±SD of triplicate determinations. *p<0.05 versus cells cultured without steroids, by ANOVA.
Quantification of apoptotic cells in vitro. Apoptotic cells were quantified either by trypan blue staining or by direct visualization of changes in nuclear morphology (in the case of transfected HeLa cells), as previously described (Plotkin,L. et al. (1999). J.
RT-PCR analysis of the ERs and AR in embryonic fibroblasts. […]

[8] = biological target: ERβ (Homo sapiens, UniProt Q92731); experiment: Etoposide-induced apoptosis in HeLa cells transfected with ERβ; conditions: HeLa transfected with ERβ
[9] = Bone remodeling in mice given doxycycline in drinking water; assay type: in vivo; conditions: 0.5 mg/ml in drinking water; stated as established
Method: Tet-F6 and wild type animals are assessed for bone mass by in vivo DEXA analysis at weekly intervals following the turning on of the transgene or the overiectomy. At the end of the 4-6 week period, both groups of animals are sacrificed and the following determinations made: a) whole body and uterine and mammary gland weights, b) length of the long bones and the width between the periosteal and endosteal bone, c) osteoblastogenesis and osteoclastogenesis in ex vivo cultures of bone marrow cells, d) prevalence of osteoblast/osteocyte and osteoclast apoptosis in sections of vertebrae, e) rate of bone formation and resorption by dynamic histomorphometry and f) compression strength of the vertebrae. An intraperitoneal injection of 30ng/g body weight of oxytetracycline-hydrochloride is administered 8 days and 2 days before sacrificing the animals for the dynamic histomorphometry analysis. It is important to note that the TET ON system is 100-1000 fold less sensitive to tetracycline than it is to doxycycline. […] Therefore, this maneuver should not influence the expression of the transgene, which at this stage will have been turned on with doxycycline.

ERβ, sequence (Q92731 whole entry, species assumed): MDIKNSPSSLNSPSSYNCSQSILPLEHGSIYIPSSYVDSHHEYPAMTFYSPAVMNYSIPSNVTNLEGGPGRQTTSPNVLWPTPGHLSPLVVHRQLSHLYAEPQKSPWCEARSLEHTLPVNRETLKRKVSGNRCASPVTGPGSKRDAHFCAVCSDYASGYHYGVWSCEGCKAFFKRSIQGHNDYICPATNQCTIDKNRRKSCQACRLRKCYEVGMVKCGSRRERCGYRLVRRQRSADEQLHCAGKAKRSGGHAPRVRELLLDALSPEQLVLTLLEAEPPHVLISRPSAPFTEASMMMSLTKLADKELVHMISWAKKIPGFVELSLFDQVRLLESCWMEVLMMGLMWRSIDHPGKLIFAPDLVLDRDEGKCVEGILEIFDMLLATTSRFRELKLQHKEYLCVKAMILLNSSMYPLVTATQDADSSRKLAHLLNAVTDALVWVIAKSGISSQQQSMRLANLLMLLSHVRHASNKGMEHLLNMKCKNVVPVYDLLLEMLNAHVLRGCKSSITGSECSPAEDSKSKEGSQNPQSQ

| Compound | prevention of apoptosis induced by etoposide, dexamethasone or TNFα [1] | prevention of the ovariectomy-induced increase in osteoblast and osteocyte apoptosis [2] | increase of lactoferrin mRNA in the uterus [3] | effect on etoposide-induced apoptosis [4] | prevention of apoptosis induced by etoposide, dexamethasone or TNFα ([5]; 10^−8 M steroid) | dose-dependent inhibition of etoposide-induced apoptosis compared with calvaria cells ([5]; not shown) | time of maximal effect on phosphorylation of ERKs [6] [min] | anti-apoptotic effect in Src−/− fibroblasts (unlike Src+/+ wild type controls) [7] | prevention of etoposide-induced apoptosis [8] | effect on bone remodeling [9] |
| --- | --- | --- | --- | --- | --- | --- | --- | --- | --- | --- |
| C[C@]12CC[C@@H]3c4ccc(O)cc4CC[C@H]3[C@@H]1CC[C@@H]2O [E2, 17β-estradiol] | prevented apoptosis | prevented | approximately 5 fold | Neither E2 nor DHT (10^−12M to 10^−8 M) had an effect | prevented apoptosis | identical results | 5 | unresponsive | prevented apoptosis in a dose-dependent manner |  |
| C[C@H]1c2cccc(O)c2C(=O)C2=C(O)[C@]3(O)C(=O)C(C(N)=O)=C(O)[C@@H](N(C)C)[C@@H]3[C@@H](O)[C@@H]21 [doxycycline] |  |  |  |  |  |  |  |  |  | no effect on bone remodeling |
